According to patent publication US20050136444A1 (priority 2003, published 2005):
Where a name gives a salt, the structure may show the parent alone. Read-outs that look alike come from different tables or passages of the source.

Key:
[1] = test system: 52° C. Water Tail Flick Test; test: 52° C. Water Tail Flick Test, intrathecal administration; assay type: in vivo, rat; conditions: rats
Protocol: Rats were implanted with chronically indwelling intrathecal catheters (PE-10; 7.5 cm) allowing for the delivery of compounds to the lumbar spinal cord. As a positive control, rats were treated with various doses of morphine (3, 10 and 30 μg).
Rats were implanted with chronically indwelling intrathecal catheters (PE-10; 7.5 cm) allowing for the delivery of compounds to the lumbar spinal cord.
Rats were implanted with chronically indwelling intrathecal catheters (PE-10; 7.5 cm) allowing for the delivery of compounds to the lumbar spinal cord. In order to rule out the possibility that the lack of antinociception produced by NPFF was due to the degradation of the peptide we administered 1DME (a stable NPFF analog).

Barrel Rotations [2] = conditions: 60 μg, reported by Panula et al. 1996; cited from earlier work
Barrel Rotations [3] = test: Barrel rotations after ICV administration of NPFF; assay type: in vivo, rat; conditions: naive rats
Text: Given that this is the only mention in the literature with respect to NPFF and barrel-rotation, we attempted to replicate this effect using naive rats implanted with ICV cannula.

NPFF2 = target: T1, NPFF2 (Homo sapiens, UniProt Q9Y5X5); test: Receptor Selection and Amplification Technology (R-SAT) functional assay, NPFF2; assay type: cell-based
T1 construct: expressed in transfected cells; host or cells: NIH3T3
Protocol: (§1) Briefly, NIH3T3 cells were grown in 96 well tissue culture plates to 70-80% confluence. Cells were transfected for 16-20 h h with plasmid DNAs using Polyfect (Qiagen Inc.) as per manufacturer's protocols. R-SAT's were generally performed with 40 ng/well of receptor and 20 ng/well of β-galactosidase plasmid DNA. All receptor and G-protein constructs used were in the pSI-derived mammalian expression vector (Promega Inc) as described previously. […] For large-scale transfections, cells were transfected for 16-20 h, then trypsinized and frozen in DMSO. Frozen cells were later thawed, plated at ˜20,000 cells per well of a 96 half-area well plate that contained drug. With both methods, cells were then grown in a humidified atmosphere with 5% ambient CO2 for five days. Media was then removed from the plates and marker gene activity was measured by the addition of the β-galactosidase substrate o-nitrophenyl β-D-galactopyranoside (ONPG, in PBS with 0.5% NP-40). The resulting colorimetric reaction was measured in a spectrophotometric plate reader (Titertek Inc.) at 420 nm. All data were analyzed using the computer program XLFit (IDBSm).
(§2) R-SAT assay was conducted as set forth in […]

NPFF2b = target: T2, NPFF2b (Homo sapiens, UniProt Q9Y5X5); test: cAMP assay in transiently transfected HEK-T cells, NPFF2; assay type: cell-based; conditions: HEK-T cell, read-out: NPFF2b % Efficacy Mean
T2 construct: expressed in transfected cells; host or cells: HEK-T
Protocol: (§3) An assay was established for measuring cAMP in transiently transfected cells that takes advantage of the fact that most cells that are transfected with one gene, can be simultaneously transfected with other genes. Thus, the NPFF1 and NPFF2 receptors were transfected along with a Gs-coupled receptor (EP2) at a ratio of 5:1.
This set up was routinely used for the transfection of HEK-T cells with NPFF1 and NPFF2 receptors. […] Cells were incubated for 15 minutes at 37° C. At the end of incubation, cells were lysed and the remainder of the assay performed as per DiscoveRx protocol.
Cells were incubated for another 15 minutes at 37° C. following which the cells were lysed and processed as per kit protocol.

rats = test: Observed behaviors / side effects after systemic administration; assay type: in vivo, rat; conditions: rats, i.p.
Protocol: These behaviors typically precede “barrel-rolling” seizures.
These effects persisted between 15 and 20 minutes. These effects were not observed in rats that received doses less than 10 mg/kg.
These effects persisted between 15 and 20 minutes and were shown by both sham-operated and SNL rats. These effects were not observed in rats that received doses less than 10 mg/kg. [drawing 22]
However, these effects were more robust and of longer duration (60-90 min).
These effects persisted between 60 and 90 minutes and were shown by both sham-operated and SNL rats. These effects were not observed in rats that received doses less than 10 mg/kg. [drawing 23]
A model of neuropathic pain was created in rats by tight ligation of the L5 and L6 spinal nerves. […] Rats were then treated with various doses of dPQR (3, 10 and 30 mg/kg, i.p.) and paw withdrawal thresholds were tested across a period of 3 hours.
A model of neuropathic pain was created in rats by tight ligation of the L5 and L6 spinal nerves. […] Rats were then treated with various doses of Compound 3099 (1, 3 and 10 mg/kg, i.p.) and paw withdrawal thresholds were tested across a period of 3 hours.
In an attempt to increase the efficacy of Compound 3099 in the SNL model, we administered a dose of 30 mg/kg (i.p.) to SNL rats. […] Further, these behaviors were also transient, such that, by the end of the testing period these effects appeared to have resolved.

NPFF1 = NPFF1 (Homo sapiens, UniProt Q9GZQ6); test: Receptor Selection and Amplification Technology (R-SAT) functional assay, NPFF1; assay type: cell-based; set-up: expressed in transfected cells; host or cells: NIH3T3; conditions: for EC50: NA = No activity detectable at the highest dose tested (20 μM), read-out: NPFF1 pEC50 (converted)
Protocol: as §1, §2

EP2 receptor = target: T3, EP2 receptor (Homo sapiens, UniProt P43116); test: cAMP response to PGE2 in HEK-T cells (EP2 co-transfection); assay type: cell-based; conditions: doses as high 10 μM
T3 construct: expressed in transfected cells; host or cells: HEK-T
Text: as §3

[4] = R-SAT, Table 1, Efficacy is relative to endogenous ligand, read-out: NPFF2 % Efficacy
[5] = R-SAT, Table 1, NA = No activity detectable at the highest dose tested (20 μM), read-out: NPFF2 pEC50 (converted)
[6] = R-SAT, Table 1, Efficacy is relative to endogenous ligand, read-out: NPFF1 % Efficacy

T1 sequence (Q9Y5X5 103-522): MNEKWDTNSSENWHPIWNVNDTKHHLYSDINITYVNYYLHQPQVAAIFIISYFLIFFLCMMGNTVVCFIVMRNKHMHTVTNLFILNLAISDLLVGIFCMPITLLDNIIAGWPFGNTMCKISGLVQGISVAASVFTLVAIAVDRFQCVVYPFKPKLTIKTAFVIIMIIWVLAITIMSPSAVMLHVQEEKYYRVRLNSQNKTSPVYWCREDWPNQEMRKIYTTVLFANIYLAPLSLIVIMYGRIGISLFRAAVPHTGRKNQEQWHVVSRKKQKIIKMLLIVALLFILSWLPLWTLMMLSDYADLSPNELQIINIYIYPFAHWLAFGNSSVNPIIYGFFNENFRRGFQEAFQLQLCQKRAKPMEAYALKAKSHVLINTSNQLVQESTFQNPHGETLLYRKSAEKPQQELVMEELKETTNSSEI
NPFF1, sequence (Q9GZQ6 whole entry, species assumed): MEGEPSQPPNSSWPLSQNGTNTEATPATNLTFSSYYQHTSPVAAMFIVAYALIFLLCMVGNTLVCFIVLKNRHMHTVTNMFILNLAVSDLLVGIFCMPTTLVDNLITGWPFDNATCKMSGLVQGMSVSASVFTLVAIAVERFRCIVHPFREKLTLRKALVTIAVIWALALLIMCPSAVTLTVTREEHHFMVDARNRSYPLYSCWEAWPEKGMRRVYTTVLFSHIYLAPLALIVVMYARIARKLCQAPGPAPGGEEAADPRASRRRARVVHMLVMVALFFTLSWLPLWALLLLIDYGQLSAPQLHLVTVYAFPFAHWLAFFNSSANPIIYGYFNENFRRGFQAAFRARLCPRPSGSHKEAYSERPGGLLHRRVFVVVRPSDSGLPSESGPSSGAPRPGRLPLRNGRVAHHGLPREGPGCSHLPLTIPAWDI
T3 sequence (P43116 whole entry): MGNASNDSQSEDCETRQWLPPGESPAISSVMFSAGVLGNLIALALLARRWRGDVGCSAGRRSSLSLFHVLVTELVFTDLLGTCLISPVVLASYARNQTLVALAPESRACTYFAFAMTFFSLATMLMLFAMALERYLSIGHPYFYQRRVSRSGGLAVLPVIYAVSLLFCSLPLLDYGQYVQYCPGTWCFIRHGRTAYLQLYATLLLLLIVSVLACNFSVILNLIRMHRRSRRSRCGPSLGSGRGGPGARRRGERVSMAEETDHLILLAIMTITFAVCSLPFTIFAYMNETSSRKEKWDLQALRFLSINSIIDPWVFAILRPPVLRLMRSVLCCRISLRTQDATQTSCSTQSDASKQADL
T2 sequence (Q9Y5X5 103-522 limits assumed): as the sequence (Q9Y5X5 103-522) above

| SMILES | Emax (NPFF2; [4]) | EC50 (NPFF2; [5]) | Emax (NPFF1; [6]) | EC50 (NPFF1; R-SAT, Table 1) | further results |
| --- | --- | --- | --- | --- | --- |
| CN1CC[C@]23c4c5ccc(O)c4O[C@H]2[C@@H](O)C=C[C@H]3[C@H]1C5 [Morphine, morphine] | – | – | – | – | A50, antinociception ([1]; 95% CI): 9.8 µg; antinociception in 52° C. water tail flick test ([1]; morphine 3, 10, 30 μg, NPFF 100 μg, 1045 11.6 or 115.5 μg, 1DME 5.6, 55.6 or 556.0 μg): produced dose-related antinociception |
| CC(C)C[C@H](NC(=O)[C@@H](N)Cc1ccccc1)C(=O)N[C@@H](Cc1ccccc1)C(=O)N[C@@H](CCC(N)=O)C(=O)N1CCC[C@H]1C(=O)N[C@@H](CCC(N)=O)C(=O)N[C@@H](CCCN=C(N)N)C(=O)N[C@@H](Cc1ccccc1)C(N)=O [NPFF, Neuropeptide FF] | – | – | – | – | barrel-rotation after ICV administration (Barrel Rotations [2]): elicits barrel-rotation; rats demonstrating barrel rolling seizures (Barrel Rotations [3]; 60 μg): 0 out of 3; rats demonstrating barrel rolling seizures (Barrel Rotations [3]; 120 μg): 1 out of 2; rats demonstrating barrel rolling seizures (Barrel Rotations [3]; 150 μg): 3 out of 5 |
| Cl.N=C(N)NN=Cc1ccc(Cl)c(Cl)c1 [Compound 1045.HCl, 1-(3,4-Dichlorobenzylideneamino)guanidine Hydrochloride] | – | – | – | – | EC50 (NPFF2; NPFF2b pEC50 Mean, R-SAT data, Table 2, multiple entries = different batches): 1000 nM; Emax (NPFF2; R-SAT data, Table 2, multiple entries = different batches, read-out: NPFF2b % Efficacy Mean): 67.6%; Emax (NPFF2b): 34%; side effects observed (rats; 10 mg/kg): demonstrated writhing behavior and appeared lethargic; side effects at doses less than 10 mg/kg (rats): not observed; Emax (NPFF1; R-SAT data, Table 2, multiple entries = different batches, read-out: NPFF1 % Efficacy Mean): 17.7% |
| N=C(N)NN=Cc1ccc2c(c1)OCCCO2 [Compound 2038, 1-[3,4-Dihydro-2H-benzo[b][1,4]dioxepin-7-yl)methylideneamino]guanidine Hydrochloride] | 77% | 3980 nM | 9% | – | – |
| [H]/N=C(\N)NN=Cc1ccc(Cl)cc1 [Compound 4008, 1-(4-Chlorobenzylideneamino)guanidine Hydrochloride] | 64% | 6310 nM | 47% | 3980 nM | – |
| N=C(N)NN=Cc1ccc(C(F)(F)F)c(F)c1 [Compound 2063, 1-[3-Fluoro-4-(trifluoromethyl)benzylideneamino]guanidine Hydrochloride] | 78% | 2510 nM | 36% | 3160 nM | – |
| N=C(N)NN=Cc1cccc(-c2ccccc2C(F)(F)F)c1 [Compound 2058, 1-[3-(2-Trifluoromethylphenyl)benzylideneamino]guanidine Hydrochloride] | 60% | 501 nM | 25% | 1000 nM | – |
| CCN(CC)c1ccc(C=NNC(=N)N)c(OC)c1 [Compound 3043, 1-(2-Methoxy-4-N,N-diethylaminobenzylideneamino)guanidine Hydrochloride] | 92% | 1000 nM | 60% | 1000 nM | – |
| CCCCC[C@H](O)/C=C/[C@H]1[C@H](O)CC(=O)[C@@H]1C/C=C\CCCC(=O)O [PGE2] | – | – | – | – | response in un-transfected HEK-T cells (EP2 receptor): no response |
| N=C(N)NN=Cc1ccc(F)c(Br)c1 [Compound 2010, 1-(3-Bromo-4-fluorobenzylideneamino)guanidine Hydrochloride] | 53% | 1260 nM | 7% | – | – |
